Results on five compounds are retold here after patent publication US11492382B2, “Chimeric peptides with an antimicrobial domain and an inorganic binding domain” (priority 2017, dated 2022).

The test system of test [1] is S. epidermidis (ATCC 29886). Conditions: in solution; previously published values; cited from earlier work.
Test [2] concerns S. mutans (ATCC 25175). As to conditions: in solution; previously published values; cited from earlier work.
Test [3] relates to Escherichia coli, ATCC 25922.
Source text: The antibacterial activity against two strains of bacteria of a previously published cHABP1 peptide,^65,66 an antimicrobial peptide designed through artificial intelligence methods (HHC-36),^67 and a chimeric peptide cHABP1-GGG-HHC36 to functionalize calcium phosphate surfaces with antibacterial activity.
In another test the test system is S. epidermidis. The test is described as follows: Antimicrobial activity on bio-coated titanium substrates, fluorescence imaging and ImageJ. In kind it is cell-based. The source says:
Two surfaces, 99% pure titanium foil (Alfa Aesar 43677, Ward Hill, Mass.) and titanium implant discs cut from standard rods used in posterior lumbar surgery (University of Kansas Medical Center Department of Neurosurgery, Kansas City, Kans.) were used for evaluation of TiBP-Spacer5-AMP biocoating antimicrobial activity. Titanium foils were cut into squares measuring 0.5 mm thick×1 cm×1 cm and 6 mm diameter implant rods were cut by the University of Kansas Medical Center Department of Neurosurgery with a standard orthopedic surgical rod cutter into 3 mm long disc segments. […]
Antimicrobial activity of TiBP-Spacer5-AMP biocoated titanium surfaces against each bacterial strain was evaluated by culturing bacteria in 24 well plates containing bio-coated surfaces or bare, untreated control surfaces. […] Stained bacteria were imaged with a fluorescence microscope (Olympus Spin Disk Epifluorescent microscope, Richmond Hill, Ontario, Canada) at an excitation/emission wave number provided by the manufacturer. Five representative fluorescence images were taken for each sample (n=3) and the bacteria were quantified using ImageJ Software and then subjected to statistical analysis.

For the next test, the system named is NIH/3T3 fibroblast. The experiment in a line: Host cell attachment and spreading on coated titanium surfaces. In kind it is cell-based. Conditions: 60 μM bio-coating. On the procedure:
Host cell response was evaluated with a fibroblast cell line (NIH/3T3 ATCC CRL-1658). The fibroblast cells were cultured following the ATCC protocol. Briefly, cells were grown in DMEM media (Gibco 11995073, Carlsbad, Calif.) supplemented with 10% fetal bovine serum (Gibco 10437036) and 1% penicillin-streptomycin (Gibco 15070063) and incubated at 37° C. in a 5% CO2 atmosphere. Fibroblasts were passaged using 0.25% TrypsinEDTA (Gibco 25200072) and cells were counted to ensure correct seeding concentrations. Fibroblast cell response to 60 μM TiBP-Spacer5AMP bio-coating, 200 μg/mL collagen (Sigma C7661, St. Louis, Mo.) coating (positive control) and bare, untreated (negative control) titanium foil and implant surfaces was studied. Fibroblast cells at a concentration of 8×10^5 cells/mL were added to sterile 24 well plates containing TiBP-Spacer5-AMP coated, collagen coated, or bare, untreated foils or implants and incubated for 24 h at 37° C. in a 5% CO2 atmosphere. Fibroblast attachment and spreading were evaluated by fixing fibroblasts on titanium surfaces with 2% glutaraldehyde solution, followed by dehydration in 10%, 30%, 60%, 90% and 100% ethanol. Fixed fibroblasts on titanium surfaces were washed twice with PBS, permeabilized with TritonX (Sigma T8787), sealed with BSA (Fisher BioReagents BP671-10, Carlsbad, Calif.), and stained with Alexa Fluor488-Phalloidin dye (Invitrogen). Unbound dye was removed by washing with PBS and substrates were imaged with a fluorescent microscope at 4, 10 and 20 times magnification. Five representative images of each surface (n=3) were obtained and analyzed with ImageJ Software and then subjected to statistical analysis. Cell attachment was determined as number of cells per square millimeter and the percentage of the image surface covered by attached cells. Another measure of viability, metabolic activity was determined using a MTT (3-(4,5-dimethylthiazol-2-yl)-25-diphenyltetrazolium bromide) assay (Sigma M5655). […] Absorbance was measured at 570 nm.

Test [4] has as its system S. epidermidis (ATCC 29886). The test is described as follows: AlamarBlue assay, minimum bactericidal concentration. The format is cell-based. On the procedure: (§1) The antimicrobial activity of TiBP-Spacer5-AMP was evaluated against two bacterial strains, S. mutans (American Type Culture Collection (ATCC) 25175, Manassas, Va.) and S. epidermidis (ATCC 29886). S. mutans cultures were prepared using Brain Heart Infusion Broth (BHI, BD Difco, Franklin Lakes, N.J.) and S. epidermidis using Nutrient Broth (NB, BD Difco) according to ATCC protocols. Bacterial pellets obtained from ATCC were rehydrated in appropriate media of which several drops were used to streak either BHI or NB agar plates. Bacteria streaked agar plates were subsequently incubated for 24 h. Agar plates and cultures were incubated at 37° C. in the presence of 5% CO2-supplemented atmosphere for S. mutans and in aerobic atmosphere and 200 rpm shaking for S. epidermidis. Overnight cultures were made by aseptically transferring a single-colony forming unit (CFU) into 10 mL of appropriate broth media followed by incubation in appropriate conditions for 16 h. Bacteria from overnight cultures were used to inoculate fresh media and grown to mid-log phase.
(§2) The MIC of TiBP-Spacer5-AMP against S. mutans and S. epidermidis in solution was evaluated in 96 well plates (Corning Costar 3370, Corning, N.Y.) spectrophotometrically over a period of 24 h by obtaining a measurement for the optical density at 600 nm (OD600) every two hours. […]
A general note: Resazurin is reduced to fluorescent resorufin, in cell work by metabolically active cells.

Test [5] has as its system S. mutans (ATCC 25175). Described as above. In kind it is cell-based. On the procedure:
as §1, §2

For test [6], the system named is S. epidermidis (ATCC 29886). The experiment in a line: MIC in solution, OD600 over 24 h. Also on record: key to Growth: Entries with a “+” indicate bacterial growth did occur at that concentration of TiBP-Spacer5-AMP; entries with a “−” indicate inhibition of bacterial growth. In kind it is cell-based. As to conditions: for Growth: S. epidermidis. On the procedure:
as §1
(§3) The MIC of TiBP-Spacer5-AMP against S. mutans and S. epidermidis in solution was evaluated in 96 well plates (Corning Costar 3370, Corning, N.Y.) spectrophotometrically over a period of 24 h by obtaining a measurement for the optical density at 600 nm (OD600) every two hours. Optical density at 600 nm was measured using a Cytation3 microplate reader (Bio Tek Instruments, Winooski, Vt.). Bacteria grown to mid-log phase at a density of 10^7 CFU/mL were cultured at appropriate growth conditions in appropriate broth media only as a control or in broth media containing a range from 5-70 μM of TiBP-Spacer5-AMP for S. mutans and 1-10 μM for S. epidermidis. The OD600 measurements obtained, relating optical density to bacteria CFUs/mL, were plotted versus time to generate standard growth curves. The minimum concentration of TiBP-Spacer5-AMP at which no increase in optical density measurement, corresponding to no bacterial growth occurring was designated as the MIC. AlamarBlue assay (Invitrogen, Carlsbad, Calif.) was used for determination of a minimum bactericidal concentration of TiBP-Spacer5-AMP. Bacteria in broth media only and with the TiBPSpacer5-AMP concentrations described in the MIC experiments were prepared in 96 well plates. AlamarBlue reagent was added to experimental wells and incubated for two hours at 37° C. Experimental wells were observed and evaluated for color change. Wells corresponding to concentrations of TiBP-Spacer5-AMP where no color change occurred were determined to have bactericidal concentrations of the chimeric peptide.

Test [7] has as its system S. mutans (ATCC 25175). The experiment in a line: MIC in solution, OD600 over 24 h. The format is cell-based. Also on record: key to Growth: Entries with a “+” indicate bacterial growth did occur at that concentration of TiBP-Spacer5-AMP; entries with a “−” indicate inhibition of bacterial growth. Conditions: for Growth: S. mutans. On the procedure:
as §1, §3

“Also recorded” adds a separate entry of the source. Like-named read-outs stand apart in the source and are kept apart here. Ends that are not written are not given here. Peptide text beside a SMILES is read from it.

“LKLLKKLLKLLKKL (SEQ ID NO: 8) [AMP, antimicrobial peptide]”: the “Minimum Inhibitory Concentration (MIC) S. epidermidis” value in test [1] is 4 µM. Also, the “Minimum Inhibitory Concentration (MIC) S. mutans” value with S. mutans (ATCC 25175) [2] is 38 µM.
Turning to `CSCC[C@H](NC(=O)[C@@H](N)CS)C(=O)N[C@@H](CC(C)C)C(=O)N1CCC[C@H]1C(=O)N[C@@H](Cc1c[nH]cn1)C(=O)N[C@@H](Cc1c[nH]cn1)C(=O)NCC(=O)N[C@@H](C)C(=O)N[C@@H](CS)C(=O)O` [cHABP1, CMLPHHGAC (SEQ ID NO: 36)] (H-CMLPHHGAC-OH; N-terminus and C-terminus assumed), the “antibacterial activity by absorbance at 600 nm (FIG. 11)” value (in test [3] (E. coli); with S. mutans (S. mutans)) was “some antibacterial activity in the higher tested concentrations” each time.
“RPRENRGRERGLGSGGGLKLLKKLLKLLKKL [TiBP-Spacer5-AMP, RPRENRGRERGL-GSGGG-LKLLKKLLKLLKKL (SEQ ID NO: 10)]”: the “Fold Improvement Compared to Uncoated Ti Surfaces, Implants” value in the test with S. epidermidis (implant discs coated at 10 μM) came to 48 fold. The “Fold Improvement Compared to Uncoated Ti Surfaces, Foils” value with S. epidermidis (titanium foil coated at 10 μM) is recorded as 33 fold. Besides, the “fibroblast surface coverage (spreading)” value with NIH/3T3 fibroblast (titanium foils, compared to untreated control) was “greater coverage”. Moreover, the adhesion and spreading entry with NIH/3T3 fibroblast (titanium implants, compared to collagen positive control) is “statistically comparable to the positive collagen controls”. Also, the “cell attachment and spreading” value with NIH/3T3 fibroblast (titanium implants, compared to untreated control) is “greater cell attachment and spreading compared to untreated controls; also recorded: statistically greater cell attachment and spreading properties”. The bactericidal concentration in test [4] turned out to be 10 µM; in the test with S. mutans (ATCC 25175) [5] it was 60 µM. For the same compound, the Growth entry in test [6] (1 μM), in test [6] (2 μM), in test [6] (3 μM), in test [6] (4 μM), in test [6] (5 μM) and in test [6] (6 μM) was “+” throughout. Also, the Growth result in test [6] (7 μM) was “+”; in test [6] (8 μM) it was “−”; in the test with S. mutans (ATCC 25175) [7] (5 μM) it was “+”; with S. mutans (ATCC 25175) [7] (10 μM), “+”; in the test with S. mutans (ATCC 25175) [7] (20 μM), “+”; with S. mutans (ATCC 25175) [7] (30 μM), “+”. Besides, the Growth result is listed as “+” with S. mutans (ATCC 25175) [7] (40 μM), “−” in the test on S. mutans (ATCC 25175) [7] (50 μM), “−” in the test with S. mutans (ATCC 25175) [7] (60 μM) and “−” in the test with S. mutans (ATCC 25175) [7] (70 μM). The “Minimum Inhibitory Concentration (MIC) S. epidermidis” value in [6] (in solution) amounted to 8 µM. Moreover, in the test with S. mutans (ATCC 25175) [7] (compared to TiBP-Spacer3-AMP), the “improvement (decrease) of MIC against S. mutans” value is “three-fold”. Besides, the “Minimum Inhibitory Concentration (MIC) S. mutans” value in the test with S. mutans (ATCC 25175) [7] (in solution) amounted to 50 µM.
On to “KRWWKWWRR [HHC-36, KRWWKWWRR (SEQ ID NO: 37)]”, for which the “E. coli IC50” value in [3] is 12 µg/mL. For the same compound, in [3] (Escherichia coli, ATCC 25922), the MIC estimate was 21.5 µM. The “S. mutans IC50” value in the test with S. mutans was 3 µg/mL. The compound also came in with an MIC value against S. mutans (S. mutans) of 10.8 µM.
Turning to “RPRENRGRERGL-GGG-LKLLKKLLKLLKKL (SEQ ID NO: 9) (RPRENRGRERGLGGGLKLLKKLLKLLKKL) [TiBP-Spacer3-AMP, comparative chimeric peptide with shorter spacer]”, in test [1], the “Minimum Inhibitory Concentration (MIC) S. epidermidis” value was 5 µM. Further, the “Minimum Inhibitory Concentration (MIC) S. mutans” value with S. mutans (ATCC 25175) [2] was 153 µM.
